Molecular target: Cdk9/cyclinT1 (Homo sapiens (Human), UniProt P50750)
Experiment: Cdk9/CyclinT1 IMAP Protocol (fluorescence polarization kinase assay)
Type: biochemical
Details: Table 2; generated using one of the two Cdk9/cyclinT1 assays (IMAP or Alpha Screen), not specified which; unit inferred
Summary of the method: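 Reaction used 4 nM Cdk9/cyclinT1, 100 nM 5TAMRA-cdk7tide peptide and 6 uM ATP in 100 mM Tris pH 7.2 with MgCl2, 0.01% Tween-20, 1 mM DTT and 2.5% DMSO, running 4.5 h. Phosphopeptide was captured by IMAP binding reagent for >1 h, then read by fluorescence polarization (ex 531/em 595 nm).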

Sequence of Cdk9/cyclinT1 (P50750 whole entry): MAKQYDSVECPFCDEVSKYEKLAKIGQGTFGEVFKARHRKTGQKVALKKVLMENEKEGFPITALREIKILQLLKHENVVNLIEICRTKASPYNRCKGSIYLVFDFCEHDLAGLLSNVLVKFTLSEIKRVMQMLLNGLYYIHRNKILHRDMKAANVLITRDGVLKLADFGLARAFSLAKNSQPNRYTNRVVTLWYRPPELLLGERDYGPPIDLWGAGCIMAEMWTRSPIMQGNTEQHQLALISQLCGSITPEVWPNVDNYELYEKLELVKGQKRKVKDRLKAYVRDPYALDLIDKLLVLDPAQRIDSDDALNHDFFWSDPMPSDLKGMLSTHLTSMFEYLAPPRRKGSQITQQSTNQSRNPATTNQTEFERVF
Sequence of Cdk9/cyclinT1 (O60563 whole entry partner): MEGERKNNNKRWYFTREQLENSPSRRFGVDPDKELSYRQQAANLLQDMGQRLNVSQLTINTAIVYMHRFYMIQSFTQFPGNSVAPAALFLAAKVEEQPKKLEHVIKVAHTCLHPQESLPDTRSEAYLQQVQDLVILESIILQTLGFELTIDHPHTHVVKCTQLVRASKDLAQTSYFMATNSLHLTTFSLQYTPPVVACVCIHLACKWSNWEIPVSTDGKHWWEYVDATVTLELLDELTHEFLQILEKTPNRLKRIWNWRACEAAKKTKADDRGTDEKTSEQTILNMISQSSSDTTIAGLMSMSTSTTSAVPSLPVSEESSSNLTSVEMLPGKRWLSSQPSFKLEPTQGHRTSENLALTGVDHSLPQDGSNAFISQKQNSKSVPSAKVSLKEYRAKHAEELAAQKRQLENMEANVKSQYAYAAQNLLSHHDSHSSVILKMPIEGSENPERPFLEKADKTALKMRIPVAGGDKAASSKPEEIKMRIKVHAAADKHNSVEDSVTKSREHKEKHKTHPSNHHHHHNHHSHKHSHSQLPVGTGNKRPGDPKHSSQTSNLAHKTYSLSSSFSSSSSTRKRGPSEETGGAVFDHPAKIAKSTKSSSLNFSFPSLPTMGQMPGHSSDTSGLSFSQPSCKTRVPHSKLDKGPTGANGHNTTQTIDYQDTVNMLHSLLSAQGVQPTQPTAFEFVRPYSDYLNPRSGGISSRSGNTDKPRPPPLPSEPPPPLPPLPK

| Structure (SMILES) | IC50 [nM] |
| --- | --- |
| O[C@H]1CC[C@@H](Nc2cc(-c3cccc(NCc4cccc(F)c4)n3)c(Cl)cn2)C1 [Compound 183] | 7.94 |
| O[C@@H]1CC[C@H](Nc2cc(-c3cccc(NCc4cccc(F)c4)n3)c(Cl)cn2)C1 [Compound 184] | 9.11 |
| OCCCCNc1cc(-c2cccc(NCc3cccc(F)c3)n2)c(Cl)cn1 [Compound 186] | 7.94 |
| OCCCNc1cc(-c2cccc(NCc3cc(F)cc(F)c3)n2)c(Cl)cn1 [Compound 189] | 7.94 |
| COC[C@H]1CC[C@H](Nc2cc(-c3cccc(NCc4cccc(F)c4)n3)c(Cl)cn2)CC1 [Compound 190] | 100 |
| COCCN[C@H]1CC[C@H](Nc2cc(-c3cccc(NCc4cc(F)cc(F)c4)n3)c(Cl)cn2)CC1 [Compound 193] | 7.94 |
| NCC(O)CNc1cc(-c2cccc(NCc3cccc(F)c3)n2)c(Cl)cn1 (stereo not shown) [Compound 195] | 35.6 |
| N[C@H]1CC[C@H](Nc2cc(-c3cccc(NCc4cccc(F)c4)n3)c(F)cn2)CC1 [Compound 197] | 7.94 |
| OCCCN[C@H]1CC[C@H](Nc2cc(-c3cccc(NCc4cccc(F)c4)n3)c(Cl)cn2)CC1 [Compound 200] | 7.94 |
| N[C@H]1CC[C@H](Nc2cc(-c3cncc(NCC4CCOCC4)n3)c(Cl)cn2)CC1 [Compound 203, trans-N1-(5-chloro-4-(6-((tetrahydro-2H-pyran-4-yl)methyl)aminopyrazin-2-yl)pyridin-2-yl)cyclohexane-1,4-diamine] | 7.94 |
| O[C@H]1CC[C@H](Nc2cc(-c3cncc(NCC4CCOCC4)n3)c(Cl)cn2)CC1 [Compound 208, trans-4-(5-chloro-4-(6-((tetrahydro-2H-pyran-4-yl)methyl)aminopyrazin-2-yl)pyridin-2-yl-amino)cyclohexanol] | 7.94 |
| Cc1cnc(N[C@H]2CC[C@H](N)CC2)cc1-c1cccc(NCc2cccc(F)c2)n1 [Compound 211, N2′-(trans-4-aminocyclohexyl)-N6-(3-fluorobenzyl)-5′-methyl-2,4′-bipyridine-2′,6-diamine] | 21 |
| O=C([C@H]1CC[C@@H](Nc2cc(-c3cccc(NCc4cccc(F)c4)n3)c(Cl)cn2)C1)N1CCCC1 [Compound 213] | 14.2 |
| CC(=O)N1CCC[C@@H](CNc2cccc(-c3cc(N[C@H]4CC[C@H](N)CC4)ncc3Cl)n2)C1 [Compound 217] | 37.3 |
| O[C@H]1CC[C@H](Nc2cc(-c3cnc(Cl)c(NCC4CCOCC4)n3)c(Cl)cn2)CC1 [Compound 222, trans-4-(5-chloro-4-(5-chloro-6-((tetrahydro-2H-pyran-4-yl)methyl)aminopyrazin-2-yl)pyridin-2-yl-amino)cyclohexanol] | 7.95 |
| NC(=O)c1ncc(-c2cc(N[C@H]3CC[C@H](N)CC3)ncc2Cl)nc1NCC1CCOCC1 [Compound 224, 5-(2-(trans-4-aminocyclohexylamino)-5-chloropyridin-4-yl)-3-((tetrahydro-2H-pyran-4-yl)methyl)aminopyrazine-2-carboxamide] | 91.9 |
| Clc1cnc(N[C@H]2CC[C@H](N3CCCC3)CC2)cc1-c1cnc(Cl)c(NCC2CCOCC2)n1 [Compound 225, 3-chloro-6-(5-chloro-2-(trans-4-(pyrrolidin-1-yl)cyclohexylamino)pyridin-4-yl)-N-((tetrahydro-2H-pyran-4-yl)methyl)pyrazin-2-amine] | 7.95 |
| Nc1ncc(-c2cc(N[C@H]3CC[C@H](N)CC3)ncc2Cl)nc1NCC1CCOCC1 [Compound 226, 6-(2-(trans-4-aminocyclohexylamino)-5-chloropyridin-4-yl)-N2-((tetrahydro-2H-pyran-4-yl)methyl)pyrazine-2,3-diamine] | 7.95 |
| N[C@H]1CC[C@H](Nc2cc(-c3cncc(NCC4CCCOC4)n3)c(Cl)cn2)CC1 (stereo partly shown) [Compound 228] | 7.95 |
| O[C@H]1CC[C@H](Nc2cc(-c3cncc(NCC4CCCOC4)n3)c(Cl)cn2)CC1 (stereo partly shown) [Compound 229] | 7.95 |
| Cc1ncc(-c2cc(N[C@H]3CC[C@H](N)CC3)ncc2Cl)nc1NCC1CCOCC1 [Compound 231, trans-N1-(5-chloro-4-(5-methyl-6-((tetrahydro-2H-pyran-4-yl)methyl)aminopyrazin-2-yl)pyridin-2-yl)cyclohexane-1,4-diamine] | 14.9 |
| N[C@H]1CC[C@H](Nc2cc(-c3nc(NCC4CCOCC4)cnc3Cl)ccn2)CC1 [Compound 232] | 7.95 |

Continued by falling IC50, values first:

| IC50 [nM] | Structure (SMILES) |
| --- | --- |
| 183 | CN1CCC(CNc2cc(-c3cncc(NCC4CCOCC4)n3)c(Cl)cn2)CC1 [Compound 209] |
| 138 | CC(=O)N1CCC[C@H](CNc2cccc(-c3ccnc(N[C@H]4CC[C@H](N)CC4)c3)n2)C1 [Compound 216, 1-((R)-3-((2′-(trans-4-aminocyclohexylamino)-2,4′-bipyridin-6-yl-amino)methyl)piperidin-1-yl)ethanone] |
| 128 | CC(=O)N1CCC[C@@H](CNc2cccc(-c3ccnc(N[C@H]4CC[C@H](N)CC4)c3)n2)C1 [Compound 218] |
| 86 | OCCNc1cc(-c2cncc(NCC3CCOCC3)n2)c(Cl)cn1 [Compound 210] |
| 65.5 | CC(=O)N1CCC[C@H](CNc2cccc(-c3cc(N[C@H]4CC[C@H](N)CC4)ncc3Cl)n2)C1 [Compound 215, 1-((R)-3-((2′-(trans-4-aminocyclohexylamino)-5′-chloro-2,4′-bipyridin-6-yl-amino)methyl)piperidin-1-yl)ethanone] |
| 54.6 | N[C@H]1CC[C@H](Nc2cc(-c3cccc(N[C@@H]4CC45CCOCC5)n3)c(Cl)cn2)CC1 [Compound 212] |
| 48.1 | CO[C@H]1CC[C@H](Nc2cc(-c3cccc(NCc4cccc(F)c4)n3)c(Cl)cn2)CC1 [Compound 194] |
| 25.9 | Nc1ncc(-c2cc(N[C@H]3CC[C@H](O)CC3)ncc2Cl)nc1NCC1CCOCC1 [Compound 227] |
| 17.5 | CN(C)C(=O)[C@H]1CC[C@@H](Nc2cc(-c3cccc(NCc4cccc(F)c4)n3)c(Cl)cn2)C1 [Compound 205, (1S,3R)-3-(5′-chloro-6-(3-fluorobenzylamino)-2,4′-bipyridin-2′-yl-amino)-N,N-dimethylcyclopentanecarboxamide] |
| 7.95 | N[C@H]1CC[C@H](Nc2cc(-c3cnc(Cl)c(NCC4CCOCC4)n3)c(Cl)cn2)CC1 [Compound 221] |
| 7.95 | N[C@H]1CC[C@H](Nc2cc(-c3nc(NCC4CCOCC4)cnc3Cl)c(Cl)cn2)CC1 [Compound 223, trans-N1-(5-chloro-4-(3-chloro-6-((tetrahydro-2H-pyran-4-yl)methyl)aminopyrazin-2-yl)pyridin-2-yl)cyclohexane-1,4-diamine] |
| 7.94 | NCCCCNc1cc(-c2cccc(NCc3cc(F)cc(F)c3)n2)c(Cl)cn1 [Compound 188] |
| 7.94 | N[C@@H]1CC[C@@H](Nc2cc(-c3cccc(NCc4cccc(F)c4)n3)c(Cl)cn2)C1 [Compound 191, N2′-((1R,3R)-3-aminocyclopentyl)-5′-chloro-N6-(3-fluorobenzyl)-2,4′-bipyridine-2′,6-diamine] |
| 7.94 | N[C@H]1CC[C@H](Nc2cc(-c3cccc(NCc4cccc(F)c4)n3)c(Cl)cn2)C1 [Compound 192] |
| 7.94 | CN(C)[C@H]1CC[C@H](Nc2cc(-c3cccc(NCc4cc(F)cc(F)c4)n3)c(Cl)cn2)CC1 [Compound 198] |
